The test has as its system P388 leukemia ip, CD2F1 mice, survival T/C. In words: NCI In Vivo Anticancer Drug Screen. Data for tumor model P388 Leukemia (intraperitoneal) in CD2F1 (CDF1) mice. As to conditions: endpoint: median survival time, higher = longer survival. The essentials:
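Mice carrying the transplanted tumor received test compound or vehicle. Survival was recorded in each group, and the value is the treated-group measurement divided by that of the vehicle-treated control group.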

Setting [1] is: dose: 100.0 mg/kg/injection, schedule: Q01DX009 (ip), vehicle: saline with Tween-80.
[2] abbreviates: dose: 200.0 mg/kg/injection, schedule: Q01DX009 (ip), vehicle: saline with Tween-80.
Setting [3] is: dose: 50.0 mg/kg/injection, schedule: Q01DX009 (ip), vehicle: saline with Tween-80.
The mark [4] stands for this setting: dose: 50.0 mg/kg/injection, schedule: Q01DX009 (ip), vehicle: saline.
Where [5] appears, read: dose: 50.0 mg/kg/injection, schedule: Q01DX005 (ip), vehicle: Klucel (hydroxypropylcellulose) (HPC).
[6] abbreviates: dose: 100.0 mg/kg/injection, schedule: Q01DX005 (ip), vehicle: Klucel (hydroxypropylcellulose) (HPC).
Where [7] appears, read: dose: 200.0 mg/kg/injection, schedule: Q01DX005 (ip), vehicle: Klucel (hydroxypropylcellulose) (HPC).
[8] abbreviates: dose: 50.0 mg/kg/injection, schedule: Q01DX005 (ip), vehicle: saline with Tween-80.
Where [9] appears, read: dose: 100.0 mg/kg/injection, schedule: Q01DX005 (ip), vehicle: saline with Tween-80.
Setting [10] is: dose: 200.0 mg/kg/injection, schedule: Q01DX005 (ip), vehicle: saline with Tween-80.
The mark [11] stands for this setting: dose: 60.0 mg/kg/injection, schedule: Q01DX005 (ip), vehicle: saline.
[12] abbreviates: dose: 120.0 mg/kg/injection, schedule: Q01DX005 (ip), vehicle: saline.
Where [13] appears, read: dose: 240.0 mg/kg/injection, schedule: Q01DX005 (ip), vehicle: saline.
Where [14] appears, read: dose: 60.0 mg/kg/injection, schedule: Q01DX005 (ip), vehicle: saline with Tween-80.
The mark [15] stands for this setting: dose: 120.0 mg/kg/injection, schedule: Q01DX005 (ip), vehicle: saline with Tween-80.
Where [16] appears, read: dose: 240.0 mg/kg/injection, schedule: Q01DX005 (ip), vehicle: saline with Tween-80.
Where [17] appears, read: dose: 60.0 mg/kg/injection, schedule: Q01DX005 (ip), vehicle: Klucel (hydroxypropylcellulose) (HPC).
The mark [18] stands for this setting: dose: 120.0 mg/kg/injection, schedule: Q01DX005 (ip), vehicle: Klucel (hydroxypropylcellulose) (HPC).
Setting [19] is: dose: 240.0 mg/kg/injection, schedule: Q01DX005 (ip), vehicle: Klucel (hydroxypropylcellulose) (HPC).

Toxic doses and inconclusive results are not listed. Square brackets hold non-standard residues; d marks the D form. Peptide text beside a SMILES is read from it. * marks the point of attachment. ξ: configuration not given here. ξF = NC(Cc1ccccc1)C(=O)O; Cbz = O=C(OCc1ccccc1)*; ξT = CC(O)C(N)C(=O)O; OBn = c1ccc(CO*)cc1; Sar = CNCC(=O)O

Consider `CC(C)CC(=O)CC(O)(C(F)(F)F)C(F)(F)F`, for which the T/C by setting is: under setting [1], 109 % of control; under setting [2], 113 % of control.

In the case of `O=[N+]([O-])c1ccc(-c2csc(COc3ccccc3)n2)cc1`, the T/C runs as follows: (dose: 50.0 mg/kg/injection, schedule: Q01DX009 (ip), vehicle: gum acacia) 98 % of control; (dose: 100.0 mg/kg/injection, schedule: Q01DX009 (ip), vehicle: gum acacia) 101 % of control; (dose: 200.0 mg/kg/injection, schedule: Q01DX009 (ip), vehicle: gum acacia) 96 % of control.

For the molecule `COc1cc(OC)c(C(=O)O)cc1C(C)=O`, the T/C is, setting by setting: under setting [3], 105 % of control; under setting [1], 115 % of control; under setting [2], 96 % of control.

`CCOC(=O)CSCC(N)=O`: the T/C by setting is: under setting [4], 100 % of control; (dose: 100.0 mg/kg/injection, schedule: Q01DX009 (ip), vehicle: saline) 100 % of control; (dose: 200.0 mg/kg/injection, schedule: Q01DX009 (ip), vehicle: saline) 98 % of control.

For `O=C(Nc1nnc(-c2ccccc2)s1)c1cc(=O)c2cc(Cl)ccc2o1`, the T/C runs as follows: under setting [5], 114 % of control; under setting [6], 98 % of control; under setting [7], 106 % of control.

In the case of `C/C(=N\N=c1\sc2ccccc2n1CC(=O)O)c1ccccc1`, the T/C is 97 % of control (dose: 100.0 mg/kg/injection, schedule: Q01DX001 (ip), vehicle: saline with Tween-80) and 89 % of control (dose: 200.0 mg/kg/injection, schedule: Q01DX001 (ip), vehicle: saline with Tween-80).

Turning to `CC[C@H]1CN2CCc3c([nH]c4ccccc34)[C@@H]2C[C@@H]1/C(=C\OC)C(=O)OC`, the T/C was 108 % of control under setting [8], 108 % of control under setting [9] and 108 % of control under setting [10].

Consider `CC[n+]1c(-c2ccccc2)c2cc(NCCCN)ccc2c2ccc(N)cc21`, for which the T/C (dose: 1.25 mg/kg/injection, schedule: Q01DX009 (ip), vehicle: water) was 97 % of control; the T/C (dose: 2.5 mg/kg/injection, schedule: Q01DX009 (ip), vehicle: water) was 116 % of control; the T/C (dose: 5.0 mg/kg/injection, schedule: Q01DX009 (ip), vehicle: water) was 103 % of control; the T/C (dose: 10.0 mg/kg/injection, schedule: Q01DX009 (ip), vehicle: water) is 115 % of control; the T/C (dose: 20.0 mg/kg/injection, schedule: Q01DX009 (ip), vehicle: water) was 116 % of control.

In the case of `COC(OC)C(Sc1ccccc1-n1cccc1)c1ccccc1` (configuration not stated), the T/C by setting is: under setting [11], 105 % of control; under setting [12], 103 % of control; under setting [13], 108 % of control.

For `COc1cccc2c(=O)c(COC(C)=O)c(C)[nH]c12`, the T/C under setting [11] was 112 % of control, the T/C under setting [12] was 112 % of control and the T/C under setting [13] was 112 % of control.

With `O=C(NCCCN1CC1)C(=O)NCCCN1CC1`, the T/C by setting is: (dose: 0.78 mg/kg/injection, schedule: Q01DX009 (ip), vehicle: saline) 156 % of control; (dose: 1.56 mg/kg/injection, schedule: Q01DX009 (ip), vehicle: saline) 190 % of control; (dose: 3.13 mg/kg/injection, schedule: Q01DX009 (ip), vehicle: saline) 190 % of control.

For `O=Nc1ccc(Cn2cc(Br)c(=O)[nH]c2=O)o1`, the T/C (dose: 25.0 mg/kg/injection, schedule: Q01DX001 (ip), vehicle: Klucel (hydroxypropylcellulose) (HPC)) is 113 % of control; the T/C (dose: 50.0 mg/kg/injection, schedule: Q01DX001 (ip), vehicle: Klucel (hydroxypropylcellulose) (HPC)) was 100 % of control; the T/C (dose: 100.0 mg/kg/injection, schedule: Q01DX001 (ip), vehicle: Klucel (hydroxypropylcellulose) (HPC)) is 108 % of control.

On to `C=C1C(=O)O[C@@H]2C[C@@]3(C)CCC[C@H](C)C3=C[C@H]12` (tested in a mixture with another compound), for which the T/C was 93 % of control (dose: 7.5 mg/kg/injection, schedule: Q01DX005 (ip), vehicle: saline + alcohol); 94 % of control (dose: 15.0 mg/kg/injection, schedule: Q01DX005 (ip), vehicle: saline + alcohol); 103 % of control (dose: 30.0 mg/kg/injection, schedule: Q01DX005 (ip), vehicle: saline + alcohol); 100 % of control (dose: 60.0 mg/kg/injection, schedule: Q01DX005 (ip), vehicle: saline + alcohol); 104 % of control (dose: 120.0 mg/kg/injection, schedule: Q01DX005 (ip), vehicle: saline + alcohol).

As for `CC(O)C(NC(=O)OCc1ccccc1)C(=O)NCC(=O)NCC(=O)OCc1ccccc1` (stereo not drawn) (Cbz-[ξT]-Gly-Gly-OBn), the T/C under setting [8] is 106 % of control, the T/C under setting [9] is 100 % of control and the T/C under setting [10] is 106 % of control.

As for `Cc1nn(C(N)=S)c(C)c1N=Nc1cccc(Cl)c1Cl`, the T/C was 100 % of control (dose: 100.0 mg/kg/injection, schedule: Q04DX002 (ip), vehicle: Klucel (hydroxypropylcellulose) (HPC)); 96 % of control (dose: 200.0 mg/kg/injection, schedule: Q04DX002 (ip), vehicle: Klucel (hydroxypropylcellulose) (HPC)); 92 % of control (dose: 400.0 mg/kg/injection, schedule: Q04DX002 (ip), vehicle: Klucel (hydroxypropylcellulose) (HPC)).

Regarding `CN1NC(c2ccccc2)=C(C#N)C(=O)CC1c1ccco1` (configuration not stated), the T/C is 102 % of control under setting [14], 86 % of control under setting [15] and 97 % of control under setting [16].

Regarding `S=S1CC2(CSSC2)C1.[Cl][Hg][Cl]`, the T/C was 111 % of control (dose: 7.5 mg/kg/injection, schedule: Q01DX009 (ip), vehicle: saline) and 117 % of control (dose: 15.0 mg/kg/injection, schedule: Q01DX009 (ip), vehicle: saline).

For `S=c1c2ccccc2c(=S)n(-c2ccccc2)n1-c1ccccc1`, the T/C by setting is: under setting [17], 91 % of control; under setting [18], 94 % of control; under setting [19], 92 % of control.

Consider `O=C(c1ccccc1)C1Nc2ccc(Cl)cc2C2C=CCC12` (configuration not stated), for which the T/C by setting is: under setting [14], 102 % of control; under setting [15], 94 % of control; under setting [16], 93 % of control.

`Cc1cc[n+](CC(N)=O)cc1`: the T/C by setting is: (dose: 12.5 mg/kg/injection, schedule: Q01DX009 (ip), vehicle: saline) 96 % of control; (dose: 25.0 mg/kg/injection, schedule: Q01DX009 (ip), vehicle: saline) 94 % of control; under setting [4], 96 % of control.

As for `CCCCCCc1cc(-c2cc(CCCCCC)[nH]n2)n[nH]1`, the T/C reads like this: under setting [17], 100 % of control; under setting [18], 98 % of control; under setting [19], 95 % of control.

Consider `O=C(O)c1cc(-c2ccc(Cl)cc2)nc2c(-c3ccccc3)cccc12`, for which the T/C runs as follows: under setting [3], 91 % of control; under setting [1], 103 % of control; under setting [2], 104 % of control.

Turning to `CCOc1nc(N)c(C(=O)c2ccc(O)c(O)c2)s1`, the T/C is 111 % of control under setting [5], 109 % of control under setting [6] and 87 % of control under setting [7].

For the molecule `CC1=C(C)/C(=C/c2ccccn2)NC1=O`, the T/C by setting is: under setting [17], 98 % of control; under setting [18], 105 % of control; under setting [19], 98 % of control.

As to `C=CCN1c2c(nc(N)[nH]c2=O)NCC1CNc1ccc(C(=O)NC(CCC(=O)O)C(=O)O)cc1` (configuration not stated), the T/C is 113 % of control (dose: 50.0 mg/kg/injection, schedule: Q04DX003 (ip), vehicle: alkali diluted with saline); 95 % of control (dose: 100.0 mg/kg/injection, schedule: Q04DX003 (ip), vehicle: alkali diluted with saline); 111 % of control (dose: 200.0 mg/kg/injection, schedule: Q04DX003 (ip), vehicle: alkali diluted with saline).

In the case of `O=C1CN2CCN3CC(=O)NC(=O)[C@H]3[C@H]2C(=O)N1`, the T/C is 101 % of control under setting [14], 101 % of control under setting [15] and 93 % of control under setting [16].

In the case of `CN(CC(=O)NC(Cc1ccccc1)C(=O)O)C(=O)OCc1ccccc1` (configuration not stated) (Cbz-[Sar]-[ξF]-OH), the T/C is 105 % of control under setting [8], 102 % of control under setting [9] and 100 % of control under setting [10].

Source of the values: PubChem BioAssay AID330 (DTP/NCI, 2004).
